Data set [1] concerns the target human mitochondrial RNA polymerase (POLRMT) (Homo sapiens, UniProt O00411). In words: POLRMT nucleotide incorporation assay. It counts as biochemical.
The next data set addresses T1, human DNA polymerase γ (Homo sapiens, UniProt P54098).
T1 construct: purchased CHIMERx (Madison, WI)
In words: Human DNA polymerase inhibition assay, γ. It counts as biochemical. Here is the method: The polymerases were purchased from CHIMERx (Madison, WI). Inhibition of DNA polymerase α activity was assayed in microtiter plates in 20 mM Tris-HCl, pH 8, 5 mM Mg acetate, 0.3 mg/mL BSA, 1mM DTT, 0.1 mM spermine, 0.05 mM dCTP, dTTP and dATP, 10 μCi ^32P-α-dGTP (800 Ci/mmol), 20 μg activated calf thymus DNA and the test compound at indicated concentrations. The DNA polymerase β and γ reaction mixture contained 50 mM Tris-HCl, pH 8.7, KCl (10 mM for β and 100 mM for γ), 10 mM MgCl2, 0.4 mg/mL BSA, 1mM DTT, 15% glycerol, 0.05 mM dCTP, dTTP and dATP, 10 μCi ^32P-α-dGTP (800 Ci/mmol), 20 μg activated calf thymus DNA and test compound at the indicated concentrations. For each assay, samples were run in triplicate, and positive controls were included. The enzyme reactions were allowed to proceed for 30 min at 37 °C followed by transfer onto glass-fiber filter plates and subsequent precipitation with 10% trichloroacetic acid (TCA). Plates were washed five times with 5% TCA, once with 95% ethanol and dried. The radioactive content of each filter was measured and used to determine the extent of inhibition of each polymerase.

A further data set can be described thus: Monkey PK study, plasma. Format: in vivo, cynomolgus monkey. The conditions noted are these: for plasma concentration, individual monkeys: AT-527 30 mg/kg oral, monkeys 1-3, BQL: <0.0017 AT-511, <0.0032 AT-273; for plasma concentration: male cynomolgus monkeys; for Cmax / MRT last / Tmax / AUC(0-t): male, cynomolgus, cynomolgus monkey; for AUC(0-t): read-out: AUC0-last. The text has this:
Monkey PK study. Male non-naïve cynomolgus monkeys were obtained from Hainan Jingang Laboratory Animal Co., Ltd. (Hainan, China), group housed during the 5-day acclimation period or individually housed during the study in stainless steel mesh cages, provided ad libitum access to RO water, fed twice daily (~120 g Certified Monkey Diet daily; Beijing Vital Keao Feed Co., Ltd., Beijing, China) and given daily treats of fresh fruit. Additional environmental enrichment included classical music and cartoons. Three groups of 5 monkeys each were administered 30, 100 or 300 mg/kg AT-527 as a powder filled in empty porcine hard gelatin capsules (size 0). The monkeys were fasted overnight prior to dosing and fed 4 h after dosing. Three dosages were selected to provide assessments of dose proportionality, the top two representing potential doses for a repeated oral dose toxicity study in monkeys, and the lowest predicted to be more therapeutically relevant. A pill gun was used to place the capsule beyond the root of the animals’ tongues and their mouths were held loosely closed for approximately 30 sec to allow them to move the jaw and swallow the capsule. Immediately following capsule administration, 20 mL of water was given by mouth and then the mouth was opened to ensure the capsule was swallowed. Blood samples (~0.6 mL) were collected up to 72 h from three animals per dose group, and up to 4 h from the remaining two animals in each group, at the same time points described for rats. […] Blood samples were collected with a syringe from a peripheral blood vessel from restrained, non-sedated animals, immediately transferred to pre-chilled tubes containing ~1 mg K2EDTA•2H20 and 20 μL of 5 mM dichlorvos solution, mixed and placed on ice until plasma was prepared by centrifugation as described for rats. Immediately after centrifugation, plasma samples were extracted with 4 volumes ISS2, and the supernatants were clarified by centrifugation (12,000 rpm, 10 min, 4°C) and stored at ≤ -60°C until analyzed by LC-MS/MS as described below. After the 4-hr blood collection, two monkeys per dose group were anesthetized with intravenous injection of pentobarbital sodium (60 mg/kg) and then euthanized as described for rats. […] All analytes were quantitated by LC-MS/MS as described below.
LC-MS/MS analysis of rat and monkey plasma and tissue homogenate supernatants. For the analysis of AT-511 in rat plasma, aliquots were extracted with 10 volumes ISS2. The supernatants were clarified by centrifugation (4000 rpm for 10 min at 4°C) and 3 μL samples were injected onto an Acuity BEH C18 1.7 μm, 2.1 × 50 mm column and a Sciex API 4000 mass spectrometer (ESI positive ion, MRM mode). Mobile phases A (0.025% formic acid (FA) and 1 mM ammonium acetate (AA) in 5% ACN in water) and B (0.025% FA and 1 mM AA in 95% ACN in water) were used to elute samples (3 μL) at 0.6 mL/min with 10% B for 0.3 min followed by linear gradients to 60% B over 0.6 min and to 90% B over 0.2 min, and ending with 90% B for 0.4 min.
PK data analysis. […] The linear/log trapezoidal rule was applied in obtaining the PK parameters.

This is an account of results in publication PMC6949113, “Preclinical evaluation of AT-527, a novel guanosine nucleotide prodrug with potent, pan-genotypic activity against hepatitis C virus” (PLoS ONE, 2020).

Like-named read-outs stand apart in the source and are kept apart here.

Chain of human mitochondrial RNA polymerase (POLRMT) (O00411 42-1230): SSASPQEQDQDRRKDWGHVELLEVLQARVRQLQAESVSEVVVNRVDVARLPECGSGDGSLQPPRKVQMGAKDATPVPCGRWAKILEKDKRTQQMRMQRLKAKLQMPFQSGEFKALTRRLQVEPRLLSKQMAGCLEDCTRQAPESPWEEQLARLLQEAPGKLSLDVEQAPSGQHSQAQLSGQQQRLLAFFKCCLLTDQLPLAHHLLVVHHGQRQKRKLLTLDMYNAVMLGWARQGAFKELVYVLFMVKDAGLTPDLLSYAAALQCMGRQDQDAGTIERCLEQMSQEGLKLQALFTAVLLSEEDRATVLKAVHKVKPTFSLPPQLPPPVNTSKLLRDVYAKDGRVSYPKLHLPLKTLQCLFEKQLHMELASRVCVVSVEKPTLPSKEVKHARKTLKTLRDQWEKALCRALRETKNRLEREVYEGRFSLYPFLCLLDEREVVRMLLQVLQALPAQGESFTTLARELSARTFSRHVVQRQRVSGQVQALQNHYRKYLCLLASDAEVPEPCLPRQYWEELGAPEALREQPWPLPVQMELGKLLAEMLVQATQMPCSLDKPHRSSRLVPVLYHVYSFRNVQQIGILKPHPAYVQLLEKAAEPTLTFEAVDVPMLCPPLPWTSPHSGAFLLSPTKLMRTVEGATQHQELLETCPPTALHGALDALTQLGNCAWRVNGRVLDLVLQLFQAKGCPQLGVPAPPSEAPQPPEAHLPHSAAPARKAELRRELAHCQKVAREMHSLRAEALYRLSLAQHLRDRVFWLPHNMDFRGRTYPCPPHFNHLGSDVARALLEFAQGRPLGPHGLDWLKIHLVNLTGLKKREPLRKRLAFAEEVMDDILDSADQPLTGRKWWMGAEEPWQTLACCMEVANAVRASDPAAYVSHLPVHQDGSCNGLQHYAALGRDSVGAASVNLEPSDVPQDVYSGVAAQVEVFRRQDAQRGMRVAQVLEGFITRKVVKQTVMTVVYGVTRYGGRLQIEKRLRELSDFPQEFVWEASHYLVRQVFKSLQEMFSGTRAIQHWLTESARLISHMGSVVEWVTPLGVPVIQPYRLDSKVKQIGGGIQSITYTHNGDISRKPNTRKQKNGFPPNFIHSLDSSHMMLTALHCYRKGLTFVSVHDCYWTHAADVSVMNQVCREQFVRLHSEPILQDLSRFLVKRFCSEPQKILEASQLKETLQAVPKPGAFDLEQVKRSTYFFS
T1 sequence (P54098 whole entry): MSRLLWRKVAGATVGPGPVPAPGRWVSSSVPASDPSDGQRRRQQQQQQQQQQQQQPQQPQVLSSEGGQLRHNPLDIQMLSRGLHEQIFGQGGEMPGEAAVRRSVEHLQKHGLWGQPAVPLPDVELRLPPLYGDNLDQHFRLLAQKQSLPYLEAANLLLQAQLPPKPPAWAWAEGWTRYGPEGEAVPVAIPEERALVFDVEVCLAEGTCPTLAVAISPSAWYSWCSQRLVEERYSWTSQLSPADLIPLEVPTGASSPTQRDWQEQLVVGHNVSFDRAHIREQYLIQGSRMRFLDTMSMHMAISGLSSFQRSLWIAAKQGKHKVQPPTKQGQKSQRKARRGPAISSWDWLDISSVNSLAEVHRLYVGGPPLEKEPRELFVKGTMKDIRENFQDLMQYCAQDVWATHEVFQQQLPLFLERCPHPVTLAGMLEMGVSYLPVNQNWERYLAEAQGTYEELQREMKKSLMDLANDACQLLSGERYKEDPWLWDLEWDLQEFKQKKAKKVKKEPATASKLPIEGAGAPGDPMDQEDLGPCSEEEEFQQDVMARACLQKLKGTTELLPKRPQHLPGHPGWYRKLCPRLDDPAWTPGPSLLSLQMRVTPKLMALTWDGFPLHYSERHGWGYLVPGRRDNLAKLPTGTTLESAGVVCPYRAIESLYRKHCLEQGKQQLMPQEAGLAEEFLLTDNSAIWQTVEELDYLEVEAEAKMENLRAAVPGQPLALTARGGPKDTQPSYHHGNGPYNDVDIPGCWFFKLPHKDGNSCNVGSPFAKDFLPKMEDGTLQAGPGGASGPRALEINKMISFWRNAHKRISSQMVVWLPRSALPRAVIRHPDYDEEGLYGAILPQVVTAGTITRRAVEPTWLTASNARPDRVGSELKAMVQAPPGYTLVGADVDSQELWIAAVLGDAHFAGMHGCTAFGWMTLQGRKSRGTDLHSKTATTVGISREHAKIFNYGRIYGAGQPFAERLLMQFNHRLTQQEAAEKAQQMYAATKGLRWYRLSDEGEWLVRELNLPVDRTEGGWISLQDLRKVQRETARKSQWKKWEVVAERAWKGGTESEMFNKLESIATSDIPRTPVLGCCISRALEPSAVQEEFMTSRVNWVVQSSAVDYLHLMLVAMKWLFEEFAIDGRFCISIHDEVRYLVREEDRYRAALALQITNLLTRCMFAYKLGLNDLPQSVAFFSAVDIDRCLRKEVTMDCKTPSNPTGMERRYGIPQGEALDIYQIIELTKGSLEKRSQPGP

On to `C[C@@]1(F)[C@H](O)[C@@H](COP(=O)(O)OP(=O)(O)OP(=O)(O)O)O[C@H]1n1cnc2c(=O)[nH]c(N)nc21` [AT-9010], for which the Relative efficiency in data set [1] ((kpol/Kd,app)incorrect/(kpol/Kd,app)correct) is reported as 2.2 x 10^−6. In addition, the Kd in data set [1] (POLRMT-catalyzed nucleotide incorporation, read-out: Kd,app) was 204 ± 94 µM. Also, the “kpol/Kd, app” value in data set [1] (efficiency of incorporation) is listed as 8.3 ± 4.0 x 10^−6 μM^-1s^-1. Moreover, on human DNA polymerase γ, the IC50 (usually the concentration needed to halve the response being measured) was above 100 µM.

Consider `C[C@@]1(F)[C@H](O)[C@@H](CO)O[C@H]1n1cnc2c(=O)[nH]c(N)nc21` [AT-273], for which the “plasma concentration, individual monkeys” value in the data set “Monkey PK study, plasma” (0.500 h) is given as “BQL”; in the data set “Monkey PK study, plasma” (1.00 h), “BQL”. Also, the plasma concentration result in “Monkey PK study, plasma” (single oral AT-527 100 mg/kg, 0.500 h, monkey 1) was “BQL”; in the data set “Monkey PK study, plasma” (single oral AT-527 100 mg/kg, 0.500 h, monkey 2), “BQL”; in the data set “Monkey PK study, plasma” (single oral AT-527 300 mg/kg, 0.500 h, monkey 1) it was “BQL”; in the data set “Monkey PK study, plasma” (single oral AT-527 300 mg/kg, 0.500 h, monkey 2) it was “BQL”; in “Monkey PK study, plasma” (single oral AT-527 300 mg/kg, 0.500 h, monkey 3), “BQL”; in the data set “Monkey PK study, plasma” (single oral AT-527 300 mg/kg, 1.00 h, monkey 1) it was “BQL”. Further, the plasma concentration entry in the data set “Monkey PK study, plasma” (single oral AT-527 300 mg/kg, 1.00 h, monkey 2) is recorded as “BQL”; in the data set “Monkey PK study, plasma” (single oral AT-527 300 mg/kg, 1.00 h, monkey 3) it was “BQL”; in “Monkey PK study, plasma” (single oral AT-527 300 mg/kg, 72.0 h, monkey 3), “BQL”. Besides, the Cmax – broadly, the peak of the concentration-time curve – was determined as 140 ± 10 nM in “Monkey PK study, plasma” (in vivo, po, 30 mg/kg); 440 ± 170 nM in the data set “Monkey PK study, plasma” (monkey plasma, single oral AT-527 100 mg/kg, read-out: Cmax); 310 ± 50 nM in “Monkey PK study, plasma” (monkey plasma, single oral AT-527 300 mg/kg, read-out: Cmax). Moreover, the MRT last (usually the average time that molecules of a dose stay in the body) amounted to 26.9 ± 1.9 h in “Monkey PK study, plasma” (in vivo, po, 30 mg/kg); 23.7 ± 3.8 h in the data set “Monkey PK study, plasma” (in vivo, po, 100 mg/kg); 27.9 ± 8.1 h in the data set “Monkey PK study, plasma” (in vivo, po, 300 mg/kg). The Tmax (in general, the time from dosing to the highest level) stood at 16 ± 6.9 h in “Monkey PK study, plasma” (in vivo, po, 30 mg/kg) and 17.3 ± 11.5 h in the data set “Monkey PK study, plasma” (in vivo, po, 300 mg/kg). In addition, the AUC(0-t) worked out at 5.42 ± 1.03 µM·h in the data set “Monkey PK study, plasma” (monkey plasma, single oral AT-527 30 mg/kg); 10.1 ± 2.6 µM·h in the data set “Monkey PK study, plasma” (monkey plasma, single oral AT-527 100 mg/kg); 12.2 ± 6.1 µM·h in the data set “Monkey PK study, plasma” (monkey plasma, single oral AT-527 300 mg/kg).
